PMC9827630, “Intra-colony venom diversity contributes to maintaining eusociality in a cooperatively breeding ant” (BMC Biology, 2023)
Where two headings read alike, the source gives them in different places. Where no end group is shown, it is not given here.

Assays:
[1] = test system: Human embryonic kidney cells ATCC CRL-1573; test: Cytotoxicity assay (CO-ADD), resazurin; format: cell-based; details: resazurin fluorescence; for Max response ± SEM: percentage growth inhibition, 37°C 5% CO2, mean ± SEM; for CC50 (concentration at 50% cytotoxicity): sigmoidal dose-response fit
Protocol: (§1) Antimicrobial and cytotoxicity assays were performed by CO-ADD (The Community for Antimicrobial Drug Discovery, Institute for Molecular Bioscience, The University of Queensland). […] Percentage growth inhibition was calculated using negative controls (media only) and positive controls (no peptide). For the hemolysis assays, human whole blood was washed three times with 3 volumes of 0.9% NaCl and then resuspended in 0.9% NaCl to a concentration of 0.5 × 10^8 cells/mL. Cells were incubated for 1 h at 37°C with or without the peptide. After incubation, plates were centrifuged at 1000 g for 10 min to pellet cells and debris and hemolysis determined by measuring the supernatant absorbance at 405 nm.

HAP1 cells = test: Cell viability assay, resazurin; format: cell-based
Protocol: In addition to the cytotoxicity assays performed by CO-ADD, we screened the synthetic peptides for toxicity in cell viability assays using HAP1, MM96L, and HEK293T cells. peptides were reconstituted in 100% DMSO then diluted in cell media (HAP1: IMDM (Sigma Aldrich) with 10% FBS and 1% Penicillin/Streptomycin (P/S); MM96L: RPMI (Gibco) with 10% FBS, 1% P/S and 1% GlutaMAX (Gibco); HEK293T: DMEM high glucose (Gibco), with 10% FBS and 1% P/S. Trypsinized cells ([…]) were seeded in each well of a 96-well plate. 0.01 to 1000 μM peptide was added to each well after 24 h, and the cells incubated for an additional 74 h. After incubation, the medium was aspirated from each well and 150 μL of fresh medium containing a 0.002% solution of resazurin (Sigma-Aldrich) was added to the wells and incubated for 4 h at 37 °C. The absorbance was measured at 570 nm using a microplate spectrophotometer (FLUOstar Omega, BMG Labtech, Germany). Percentage cell viability at concentrations of 10 and 100 μM peptide were compared with negative control by one-way ANOVA Dunnett’s multiple comparisons test (GraphPad Prism8).

[2] = test system: Escherichia coli ATCC 25922; test: Antimicrobial growth inhibition (CO-ADD); format: cell-based; details: absorbance at 600 nm; for Max response ± SEM: percentage growth inhibition, mean ± SEM; for MIC: sigmoidal dose-response fit of growth inhibition
Protocol: as §1

[3] = test system: Pseudomonas aeruginosa ATCC 27853; test: Antimicrobial growth inhibition (CO-ADD); format: cell-based; details: absorbance at 600 nm; for Max response ± SEM: percentage growth inhibition, mean ± SEM; for MIC: sigmoidal dose-response fit of growth inhibition
Protocol: as §1

[4] = test system: Staphylococcus aureus ATCC 43300; test: Antimicrobial growth inhibition (CO-ADD); format: cell-based; details: for Max response ± SEM: percentage growth inhibition, mean ± SEM; for Max response ± SEM / MIC: absorbance at 600 nm; for MIC: sigmoidal dose-response fit of growth inhibition; for EC50: summary of Table S2
Protocol: as §1

[5] = test system: Klebsiella pneumoniae ATCC 700603; test: Antimicrobial growth inhibition (CO-ADD); format: cell-based; details: absorbance at 600 nm; for Max response ± SEM: percentage growth inhibition, mean ± SEM; for MIC: sigmoidal dose-response fit of growth inhibition
Protocol: as §1

[6] = test system: Acinetobacter baumannii ATCC 19606; test: Antimicrobial growth inhibition (CO-ADD); format: cell-based; details: for Max response ± SEM: percentage growth inhibition, mean ± SEM; for Max response ± SEM / MIC: absorbance at 600 nm; for MIC: sigmoidal dose-response fit of growth inhibition; for EC50: summary of Table S2
Protocol: as §1

[7] = test system: F11 (mouse neuroblastoma × rat dorsal root ganglion (DRG) neuron hybrid) cells; test: Calcium imaging of F11 cells (FLIPR); format: cell-based; details: increase in [Ca2+]i
Protocol: F11 (mouse neuroblastoma × rat dorsal root ganglion (DRG) neuron hybrid) cells were cultured as previously described. Cells were maintained on Ham’s F12 media supplemented with 10 % fetal bovine serum, 100 μM hypoxanthine, 0.4 μM aminopterin, and 16 μM thymidine (Hybri-MaxTM, Sigma Aldrich). 384-well imaging plates (Corning, Lowell, MA, USA) were seeded 48 h prior to imaging resulting in 90 – 95% confluence at imaging. Cells were incubated for 30 min with Calcium 4 assay component A, as per the manufacturer’s instructions (Molecular Devices, Sunnyvale, CA) in physiological salt solution (PSS; composition in mM: 140 NaCl, 11.5 D-glucose, 5.9 KCl, 1.4 MgCl2, 1.2 NaH2PO4, 5 NaHCO3, 1.8 CaCl2, 10 HEPES) at 37°C. […] Signals were read every second for 10 s before, and 300 s after, the addition of peptides in PSS supplemented with 0.1% bovine serum albumin. All data represent mean ± SEM of a representative assay in triplicate. Fluorescence changes on peptide addition were compared to addition of negative control solution (0.1% BSA in PSS). The resulting maximum-minimum fluorescence in the 300 s period after peptide addition was recorded as the response.

panel of microbes = test: Antimicrobial screening, summary over the panel of microbes; format: cell-based
Protocol: as §1

[8] = test system: Candida albicans ATCC 90028; test: Antifungal growth inhibition (CO-ADD); format: cell-based; details: absorbance at 530 nm; for Max response ± SEM: percentage growth inhibition, mean ± SEM; for MIC: sigmoidal dose-response fit of growth inhibition
Protocol: as §1

[9] = test system: Cryptococcus neoformans var. grubii H99; ATCC 208821; test: Antifungal growth inhibition (CO-ADD); format: cell-based; details: for Max response ± SEM: percentage growth inhibition, difference in absorbance 600 and 570 nm after resazurin, 35°C 2 h, mean ± SEM; for MIC: sigmoidal dose-response fit of growth inhibition, resazurin read-out
Protocol: as §1

F11 = test: Ion permeability F11; format: cell-based, mouse; details: ions listed as permeant; - = none
Human red blood cells = test: Hemolysis assay (CO-ADD); format: cell-based; details: 1 h at 37°C; for HC50 (concentration at 50% hemolytic activity): absorbance at 405 nm, sigmoidal dose-response fit; for Max response ± SEM: hemolysis, washed human blood 0.5 × 10^8 cells/mL in 0.9% NaCl, supernatant absorbance at 405 nm, mean ± SEM
Protocol: as §1

HEK = test: Ion permeability HEK; format: cell-based, Human; details: ions listed as permeant; - = none
[10] = test system: Female fruit flies (D. melanogaster strain Canton-S); test: Fruit fly injection assay (lethality, paralysis, climbing); format: in vivo, Drosophila melanogaster; details: 5 nmol/g injected, climbing assay 5 min after injection; significant versus control
Protocol: Female fruit flies (D. melanogaster strain Canton-S) were injected four to six days post-emergence. Female flies were used because their larger size makes injection easier. Groups of eight female flies were assayed in triplicate for each dose tested. Injection needles were formed from glass capillary tubes (#3-000-203-G/X, Drummond, Birmingham, AL, USA) using a micropipette puller (Sutter Instrument Co. Model P-97), with the fine tip manually trimmed afterwards using scissors. Needles then were filled with mineral oil, connected to a Nanoliter 2000 microinjector ([…], Bensenville, IL USA) equipped with a foot pedal, and ~1 μL of peptide solution or water aspirated. Each group of flies were immobilized by cooling for approximately 2 min on ice, and then decanted on the top of the ‘injection stage’, a petri dish filled with ice. Under a dissecting microscope, each fly was carefully impaled on the lateral thorax behind the wing, and 50.6 nL of venom peptide or water was injected. After injection, each group of flies were returned to their 5 mL plastic tube at room temperature and their behavior observed.

[11] = max-min fluorescence over 300 s, read-out: EC50 (F11 cells, Table S2)
[12] = all strains of the panel (for Rm54a and Rm55a: strains other than S. aureus)

Row | Substance | Max response ± SEM [1] | CC50 (concentration at 50% cytotoxicity) [1] | Cytotoxicity to HAP cells (HAP1 cells) | Max response ± SEM [2] | MIC [2] | Max response ± SEM [3] | MIC [3] | Max response ± SEM [4] | MIC [4] | Max response ± SEM [5] | MIC [5] | Max response ± SEM [6] | MIC [6] | Max response ± SEM [8] | MIC [8] | Max response ± SEM [9] | MIC [9] | ion permeability F11 (F11) | HC50 (concentration at 50% hemolytic activity) (Human red blood cells) | ion permeability HEK (HEK) | further results
1 | ALWDTIKKWVAKVLPLVKNALK-NH2 [Rm20a] | 57 ± 5 | 11 µM | cytotoxic to HAP cells | 100 ± 0 | 13 µM | 14 ± 2 | >13 µM | 102 ± 2 | 1.6 µM | 71 ± 29 | >13 µM | 100 ± 1 | ≤0.10 µM | 8 ± 7 | >13 µM | 88 ± 1 | 0.79 µM | Ca2+,Na+,Th+ | >13 (HC50) uM | Ca2+,Na+,Th+ | HAP cell viability (HAP1 cells; 10 μM peptide, n = 3 per group): significantly reduced HAP cell viability; EC50 [6]: ≤ 0.1 µM; EC50 [7, 11]: 8.1 µM; Growth inhibition over the microbial strains examined (panel of microbes; all microbial strains except Pseudomonas aeruginosa and Candida albicans): complete or near-complete growth inhibition of all microbial strains
2 | FIGGLIKFIAKFVPKILPFFQKKN-OH [Rm34a] | 57 ± 5 | 1.7 µM | cytotoxic to HAP cells | 98 ± 0 | 8.6 µM | 85 ± 6 | 11 µM | 102 ± 2 | ≤0.09 µM | 70 ± 28 | 11 µM | 100 ± 0 | ≤0.09 µM | 100 ± 2 | 0.72 µM | 101 ± 0 | 6.1 µM | Ca2+,Na+,Th+ | 3.3 µM | Ca2+,Na+,Th+ | HAP cell viability (HAP1 cells; 10 μM peptide, n = 3 per group): significantly reduced HAP cell viability; EC50 [4]: ≤ 0.09 µM; EC50 [6]: ≤ 0.09 µM; EC50 [7, 11]: 4.8 µM; Growth inhibition over the microbial strains examined (panel of microbes; [12]): complete or near-complete growth inhibition of all microbial strains; Motor behavior (climbing assay) [10]: disrupted motor behavior
3 | FLPFLIPVIASLVSSLK-NH2 [Rm55a] | 51 ± 0 | >17 (CC50) uM | cytotoxic to HAP cells | 4 ± 1 | >17 µM | 10 ± 1 | >17 µM | 103 ± 2 | ≤0.14 µM | 8 ± 1 | >17 µM | 24 ± 1 | >17 µM | 3 ± 0 | >17 µM | -10 ± 0 | >17 µM | Ca2+,Na+,Th+ | >17 (HC50) uM | Ca2+,Na+ | HAP cell viability (HAP1 cells; 100 μM peptide, n = 3, mean ± SEM): 24.6 ± 8.1%; Inhibition of S. aureus (in words) [4]: complete inhibition; EC50 [4]: ≤ 0.14 µM; EC50 ([7]; max – min fluorescence, n = 3, four-parameter Hill equation, read-out: EC50 (effect on F11 cells, Fig. 5)): 9.2 µM; Growth inhibition over the microbial strains examined (panel of microbes; [12]): not affecting any of the other strains examined; Max response ± SEM (Human red blood cells): 15 ± 6
4 | ILPALIPVFASLLPWAIKKF-NH2 [Rm55b] | 98 ± 1 | 2.6 µM | cytotoxic to HAP cells | 11 ± 1 | >14 µM | 3 ± 1 | >14 µM | 103 ± 1 | ≤0.11 µM | 12 ± 1 | >14 µM | 98 ± 0 | 14 µM | 3 ± 0 | >14 µM | 86 ± 4 | 11 µM | Ca2+,Na+,Th+ | 7.4 µM | Ca2+,Na+,Th+ | HAP cell viability (HAP1 cells; 10 μM peptide, n = 3 per group): significantly reduced HAP cell viability; EC50 [7, 11]: 4 µM; Motor behavior (climbing assay) [10]: disrupted motor behavior; Max response ± SEM (Human red blood cells): 40 ± 3
